As usually defined, the IC50 is the point on the concentration scale where inhibition reaches its midpoint. In general, inhibition refers to the relative decrease from the control value, in per cent.

The target in one assay is T1, c-kit (Homo sapiens, UniProt P10721).
T1 construct: MO7e (human megakaryocytic leukemia cell line) which had been arrested for 20 hr; endogenous in cells; host or cells: MO7e human megakaryocytic leukemia cell line
As to the kind of experiment: Inhibitory activity against c-kit autophosphorylation (MO7e cells, h-SCF). The note with it: MO7e cells, 50 ng/ml h-SCF; read-out: c-kit IC50. In kind it is cell-based. In outline:
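Growth-arrested (20 hr) MO7e; cpd in DMSO, 1 hr; h-SCF 50 ng/ml, 5 min; lyse. ELISA: anti-pTyr (PY-20) capture, anti-c-kit 1° Ab, HRP anti-rabbit 2° Ab, A450.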

The target of a further assay is T2, PDGF-Ra (Homo sapiens, UniProt P16234).
T2 construct: host or cells: G-292 human osteosarcoma cells
As to the kind of experiment: Inhibitory activity against PDGF-Ra phosphorylation by PDGF-AA stimulation using G292. In kind it is cell-based. The conditions noted are these: for IC50: > means inhibition at indicated concentration not more than 50%, < and << not less than 50%, read-out: PDGF (E) IC50; for inhibition at 0.1 µM: G292, figure within parentheses in >100( ), at 100 nM, read-out: PDGF (E) inhibition (%) at 100 nM. The gist of the method: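 G-292 human osteosarcoma cells in 0.1% FBS medium overnight, given compound for 1 hr at 37° C, then PDGF-AA 50 ng/ml for 5 min. Lysates captured on anti-phosphotyrosine (PY-20) plates and probed with anti-PDGF-Ra plus HRP secondary; absorbance at 450 nm.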

T1 sequence (P10721 26-976): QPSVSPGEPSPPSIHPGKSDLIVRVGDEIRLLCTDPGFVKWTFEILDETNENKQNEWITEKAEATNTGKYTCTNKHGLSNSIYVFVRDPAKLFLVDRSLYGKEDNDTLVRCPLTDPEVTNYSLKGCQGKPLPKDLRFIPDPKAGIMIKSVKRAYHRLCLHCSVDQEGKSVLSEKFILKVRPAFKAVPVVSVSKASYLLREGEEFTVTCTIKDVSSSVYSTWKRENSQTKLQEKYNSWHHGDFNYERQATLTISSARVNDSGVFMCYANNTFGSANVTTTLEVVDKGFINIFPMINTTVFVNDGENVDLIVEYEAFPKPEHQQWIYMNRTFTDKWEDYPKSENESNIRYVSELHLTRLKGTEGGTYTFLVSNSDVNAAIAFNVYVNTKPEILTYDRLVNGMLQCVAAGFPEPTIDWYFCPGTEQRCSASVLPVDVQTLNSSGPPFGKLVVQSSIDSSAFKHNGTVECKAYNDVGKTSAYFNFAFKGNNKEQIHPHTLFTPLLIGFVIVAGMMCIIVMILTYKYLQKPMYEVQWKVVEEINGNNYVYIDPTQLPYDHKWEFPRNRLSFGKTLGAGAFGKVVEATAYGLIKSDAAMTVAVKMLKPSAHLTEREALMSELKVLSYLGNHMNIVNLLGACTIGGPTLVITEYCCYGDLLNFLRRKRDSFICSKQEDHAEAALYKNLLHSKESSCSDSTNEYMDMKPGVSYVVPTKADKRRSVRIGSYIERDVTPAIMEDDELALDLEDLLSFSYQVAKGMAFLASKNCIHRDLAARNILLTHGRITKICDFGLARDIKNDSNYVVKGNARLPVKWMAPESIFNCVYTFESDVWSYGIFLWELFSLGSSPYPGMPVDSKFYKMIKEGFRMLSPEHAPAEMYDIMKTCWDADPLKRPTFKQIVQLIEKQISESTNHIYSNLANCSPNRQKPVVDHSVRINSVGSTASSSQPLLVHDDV
T2 sequence (P16234 24-1089): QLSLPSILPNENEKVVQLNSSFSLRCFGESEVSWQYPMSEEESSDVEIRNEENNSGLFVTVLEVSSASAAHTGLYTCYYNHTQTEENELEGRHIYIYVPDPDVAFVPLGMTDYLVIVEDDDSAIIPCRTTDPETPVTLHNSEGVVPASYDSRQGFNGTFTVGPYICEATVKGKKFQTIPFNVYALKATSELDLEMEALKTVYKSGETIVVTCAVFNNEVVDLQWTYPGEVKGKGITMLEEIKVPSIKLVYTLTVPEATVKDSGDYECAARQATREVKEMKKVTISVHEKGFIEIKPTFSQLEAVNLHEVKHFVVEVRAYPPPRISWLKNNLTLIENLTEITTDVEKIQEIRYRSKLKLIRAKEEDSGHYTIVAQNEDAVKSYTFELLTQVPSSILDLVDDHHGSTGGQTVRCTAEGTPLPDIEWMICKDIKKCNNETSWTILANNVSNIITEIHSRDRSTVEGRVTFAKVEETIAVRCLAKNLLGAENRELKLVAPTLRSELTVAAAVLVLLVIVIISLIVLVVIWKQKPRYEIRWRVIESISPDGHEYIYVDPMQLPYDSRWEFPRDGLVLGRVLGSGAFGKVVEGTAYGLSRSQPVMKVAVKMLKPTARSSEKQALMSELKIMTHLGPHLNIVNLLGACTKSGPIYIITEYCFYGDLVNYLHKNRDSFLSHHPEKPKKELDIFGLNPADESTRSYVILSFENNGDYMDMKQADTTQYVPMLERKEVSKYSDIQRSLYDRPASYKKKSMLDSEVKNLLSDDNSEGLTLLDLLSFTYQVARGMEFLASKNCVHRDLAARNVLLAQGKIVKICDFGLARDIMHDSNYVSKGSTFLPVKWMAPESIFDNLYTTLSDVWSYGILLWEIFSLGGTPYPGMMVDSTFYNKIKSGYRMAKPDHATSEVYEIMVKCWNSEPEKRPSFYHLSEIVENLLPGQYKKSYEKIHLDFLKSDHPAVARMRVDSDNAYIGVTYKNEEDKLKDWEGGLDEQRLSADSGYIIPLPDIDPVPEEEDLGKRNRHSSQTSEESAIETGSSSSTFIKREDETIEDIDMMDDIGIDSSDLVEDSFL

Consider `CCCC(CCC)OC(=O)Nc1ccc(Oc2ncnc3cc(OC)c(OC)cc23)cc1` [Example 400, 1-Propylbutyl N-{4-[(6,7-dimethoxy-4-quinazolinyl)oxy]phenyl}carbamate], for which the concentration for half-maximal inhibition (IC50) is 671 nM on c-kit and less than 10 nM on PDGF-Ra.

For the molecule `CCCCC(CC)OC(=O)Nc1ccc(Oc2ncnc3cc(OC)c(OC)cc23)cc1` (stereo not drawn) [Example 401, 1-Ethylpentyl N-{4-[(6,7-dimethoxy-4-quinazolinyl)oxy]phenyl}carbamate], the IC50 on c-kit is 586 nM; on PDGF-Ra, less than 10 nM.

`COc1cc2ncnc(Oc3ccc(NC(=O)Oc4ccccc4OC)cc3)c2cc1OC` [Example 403, 2-Methoxyphenyl N-{4-[(6,7-dimethoxy-4-quinazolinyl)oxy]phenyl}carbamate]: the values for the concentration for half-maximal inhibition (IC50) at c-kit and at PDGF-Ra were 93 nM and 14 nM, respectively.

Take `C=C(C)COC(=O)Nc1ccc(Oc2ccnc3cc(OC)c(OC)cc23)cc1` [Example 404, 2-Methylallyl N-{4-[(6,7-dimethoxy-4-quinolyl)oxy]phenyl}carbamate]: the IC50 was 81 nM at c-kit and less than 10 nM on PDGF-Ra.

Consider `C=C(C)COC(=O)Nc1cc(C)c(Oc2ccnc3cc(OC)c(OC)cc23)cc1C` [Example 405, 2-Methylallyl N-{4-[(6,7-dimethoxy-4-quinolyl)oxy]-2,5-dimethylphenyl}carbamate], for which the IC50 on c-kit turned out to be 126 nM; at PDGF-Ra, 46 nM.

Take `C=C(C)COC(=O)Nc1ccc(Oc2ccnc3cc(OC)c(OC)cc23)c(C)c1C` [Example 406, 2-Methylallyl N-{4-[(6,7-dimethoxy-4-quinolyl)oxy]-2,3-dimethylphenyl}carbamate]: the IC50 on c-kit is less than 30 nM; on PDGF-Ra, less than 10 nM.

For `C=C(C)COC(=O)Nc1ccc(Oc2ncnc3cc(OC)c(OC)cc23)cc1` [Example 407, 2-Methylallyl N-{4-[(6,7-dimethoxy-4-quinazolinyl)oxy]phenyl}carbamate], the figures for the concentration for half-maximal inhibition (IC50) on c-kit and on PDGF-Ra were 68 nM and 26 nM, respectively.

As to `C#CCC(CC)OC(=O)Nc1cc(C)c(Oc2ccnc3cc(OC)c(OC)cc23)cc1C` (stereo not drawn) [Example 409, 1-Ethyl-3-butynyl N-{4-[(6,7-dimethoxy-4-quinolyl)oxy]-2,5-dimethylphenyl}carbamate], the 50% inhibitory concentration (IC50) was found to be 392 nM at c-kit and 26 nM on PDGF-Ra.

Turning to `C#CCC(CC)OC(=O)Nc1ccc(Oc2ccnc3cc(OC)c(OC)cc23)c(C)c1C` (stereo not drawn) [Example 410, 1-Ethyl-3-butynyl N-{4-[(6,7-dimethoxy-4-quinolyl)oxy]-2,3-dimethylphenyl}carbamate], the half-maximal inhibitory concentration (IC50) came to 79 nM at c-kit and 12 nM on PDGF-Ra.

`CCCCCC(C)OC(=O)Nc1ccc(Oc2ccnc3cc(OC)c(OC)cc23)cc1` (stereo not drawn) [Example 411, 1-Methylhexyl N-{4-[(6,7-dimethoxy-4-quinolyl)oxy]phenyl}carbamate]: the half-inhibitory concentration (IC50) at c-kit turned out to be 43 nM; at PDGF-Ra, 17 nM.

On to `CCCCCC(C)OC(=O)Nc1cc(C)c(Oc2ccnc3cc(OC)c(OC)cc23)cc1C` (stereo not drawn) [Example 412], for which the figures for the IC50 on c-kit and at PDGF-Ra were 122 nM and 81 nM, respectively.

For the molecule `CCCCCC(C)OC(=O)Nc1ccc(Oc2ccnc3cc(OC)c(OC)cc23)c(C)c1C` (stereo not drawn) [Example 413, 1-Methylhexyl N-{4-[(6,7-dimethoxy-4-quinolyl)oxy]-2,3-dimethylphenyl}carbamate], the IC50 on c-kit came to 50 nM; at PDGF-Ra, 39 nM.

For `COc1cc2nccc(Oc3ccc(NC(=O)OCCCN4CCCCC4)c(C)c3C)c2cc1OC` [Example 415, 3-Piperidinopropyl N-{4-[(6,7-dimethoxy-4-quinolyl)oxy]-2,3-dimethylphenyl}carbamate], the values for the IC50 on c-kit and at PDGF-Ra were 98 nM and 24 nM, respectively.

As for `COc1cc2nccc(Oc3ccc(NC(=O)OCN4C(=O)c5ccccc5C4=O)c(C)c3C)c2cc1OC` [Example 418, (1,3-Dioxo-2,3-dihydro-1H-2-isoindolyl)methyl N-{4-[(6,7-dimethoxy-4-quinolyl)oxy]-2,3-dimethylphenyl}carbamate], the IC50 on c-kit was determined as 401 nM; at PDGF-Ra, 26 nM.

On to `COc1cc2nccc(Oc3ccc(NC(=O)OCCN4C(=O)c5ccccc5C4=O)c(C)c3C)c2cc1OC` [Example 420, 2-(1,3-Dioxo-2,3-dihydro-1H-2-isoindolyl)ethyl N-{4-[(6,7-dimethoxy-4-quinolyl)oxy]-2,3-dimethylphenyl}carbamate], for which the 50% inhibitory concentration (IC50) at c-kit was 77 nM; at PDGF-Ra, 16 nM.

With `COc1cc2nccc(Oc3cc(C)c(NC(=O)OCCCN4CCOCC4)cc3C)c2cc1OC` [Example 422, 3-Morpholinopropyl N-{4-[(6,7-dimethoxy-4-quinolyl)oxy]-2,5-dimethylphenyl}carbamate], the 50% inhibitory concentration (IC50) on c-kit is 119 nM; at PDGF-Ra it was less than 10 nM.

As for `COc1cc2nccc(Oc3ccc(NC(=O)OCCCN4CCN(C)CC4)cc3)c2cc1OC` [Example 424, 3-(4-Methylpiperazino)propyl N-{4-[(6,7-dimethoxy-4-quinolyl)oxy]phenyl}carbamate], the results for the IC50 at c-kit and at PDGF-Ra were 224 nM and 47 nM, respectively.

Regarding `COc1cc2nccc(Oc3cc(C)c(NC(=O)OCCCN4CCN(C)CC4)cc3C)c2cc1OC` [Example 425, 3-(4-Methylpiperazino)propyl N-{4-[(6,7-dimethoxy-4-quinolyl)oxy]-2,5-dimethylphenyl}carbamate], the IC50 at c-kit is 464 nM. Also, on PDGF-Ra, the IC50 is more than 100 nM and the inhibition at 0.1 µM was 5%.

Regarding `CCN(CC)CCCOC(=O)Nc1ccc(Oc2ccnc3cc(OC)c(OC)cc23)cc1` [Example 426, 3-(Diethylamino)propyl N-{4-[(6,7-dimethoxy-4-quinolyl)oxy]phenyl}carbamate], the concentration for half-maximal inhibition (IC50) on c-kit is 272 nM; at PDGF-Ra it was 22 nM.

Turning to `CCN(CC)CCCOC(=O)Nc1cc(C)c(Oc2ccnc3cc(OC)c(OC)cc23)cc1C` [Example 427, 3-(Diethylamino)propyl N-{4-[(6,7-dimethoxy-4-quinolyl)oxy]-2,5-dimethylphenyl}carbamate], at c-kit, the 50% inhibitory concentration (IC50) was 364 nM. In addition, on PDGF-Ra, the IC50 is more than 100 nM and the inhibition at 0.1 µM was 13%.

For `CCN(CC)CCCOC(=O)Nc1ccc(Oc2ccnc3cc(OC)c(OC)cc23)c(C)c1C` [Example 428, 3-(Diethylamino)propyl N-{4-[(6,7-dimethoxy-4-quinolyl)oxy]-2,3-dimethylphenyl}carbamate], the 50% inhibitory concentration (IC50) turned out to be 158 nM at c-kit and 64 nM at PDGF-Ra.

As to `CCN(CC)CCCOC(=O)Nc1ccc(Oc2ncnc3cc(OC)c(OC)cc23)cc1` [Example 429, 3-(Diethylamino)propyl N-{4-[(6,7-dimethoxy-4-quinazolinyl)oxy]phenyl}carbamate], the half-inhibitory concentration (IC50) at c-kit amounted to 603 nM; on PDGF-Ra, 54 nM.

`COc1cc2nccc(Oc3cc(C)c(NC(=O)OCc4ccccn4)cc3C)c2cc1OC` [Example 430, 2-Pyridylmethyl N-{4-[(6,7-dimethoxy-4-quinolyl)oxy]-2,5-dimethylphenyl}carbamate]: the IC50 on c-kit was determined as 182 nM; at PDGF-Ra, 76 nM.

In the case of `COc1cc2nccc(Oc3ccc(NC(=O)OCc4ccccn4)c(C)c3C)c2cc1OC` [Example 431, 2-Pyridylmethyl N-{4-[(6,7-dimethoxy-4-quinolyl)oxy]-2,3-dimethylphenyl}carbamate], the half-inhibitory concentration (IC50) stood at 43 nM at c-kit and 17 nM on PDGF-Ra.

`COc1cc2nccc(Oc3ccc(NC(=O)OCc4cccnc4)c(C)c3C)c2cc1OC` [Example 432, 3-Pyridylmethyl N-{4-[(6,7-dimethoxy-4-quinolyl)oxy]-2,3-dimethylphenyl}carbamate]: the half-inhibitory concentration (IC50) at c-kit is less than 30 nM; on PDGF-Ra it was 13 nM.

On to `COc1cc2nccc(Oc3ccc(NC(=O)OCc4ccncc4)cc3)c2cc1OC` [Example 433, 4-Pyridylmethyl N-{4-[(6,7-dimethoxy-4-quinolyl)oxy]phenyl}carbamate], for which the values for the IC50 at c-kit and on PDGF-Ra were less than 30 nM and 11 nM, respectively.

With `COc1cc2ncnc(Oc3ccc(NC(=O)OCc4ccncc4)cc3)c2cc1OC` [Example 434, 4-Pyridylmethyl N-{4-[(6,7-dimethoxy-4-quinazolinyl)oxy]phenyl}carbamate], the concentration for half-maximal inhibition (IC50) is less than 30 nM on c-kit and 20 nM on PDGF-Ra.

As for `CCN(CC)CCOC(=O)Nc1ccc(Oc2ccnc3cc(OC)c(OC)cc23)cc1` [Example 435, 2-(Diethylamino)ethyl N-{4-[(6,7-dimethoxy-4-quinolyl)oxy]phenyl}carbamate], the half-maximal inhibitory concentration (IC50) on c-kit amounted to 445 nM; on PDGF-Ra it was 33 nM.

On to `CCN(CC)CCOC(=O)Nc1ccc(Oc2ncnc3cc(OC)c(OC)cc23)cc1` [Example 436, 2-(Diethylamino)ethyl N-{4-[(6,7-dimethoxy-4-quinazolinyl)oxy]phenyl}carbamate], for which, on c-kit, the IC50 is 878 nM. For the same molecule, at PDGF-Ra, the IC50 was more than 100 nM and the inhibition at 0.1 µM came out at 46%.

On to `CCCC(CCN1CCOCC1)OC(=O)Nc1ccc(Oc2ccnc3cc(OC)c(OC)cc23)cc1` (stereo not drawn) [Example 437, 1-(2-Morpholinoethyl)butyl N-{4-[(6,7-dimethoxy-4-quinolyl)oxy]phenyl}carbamate], for which the IC50 at c-kit came out at 250 nM; on PDGF-Ra, 48 nM.

On to `CCCC(CCN1CCOCC1)OC(=O)Nc1cc(C)c(Oc2ccnc3cc(OC)c(OC)cc23)cc1C` (stereo not drawn) [Example 438, 1-(2-Morpholinoethyl)butyl N-{4-[(6,7-dimethoxy-4-quinolyl)oxy]-2,5-dimethylphenyl}carbamate], for which the IC50 at c-kit was 414 nM. Besides, on PDGF-Ra, the concentration for half-maximal inhibition (IC50) is more than 100 nM and the inhibition at 0.1 µM was 41%.

Values taken from patent US7135466B2 (Kirin Beer Kabushiki Kaisha, priority 1999, dated 2006).
